Experimental data: PubChem BioAssay AID284 (DTP/NCI, 2004)
Toxic doses and inconclusive results are not listed. How the source made its calls: active means survival T/C of 150% or more; inactive means T/C below 125% in these data.

System: BDF1 mice, L1210/MTX-resistant leukemia ip, survival T/C
Experiment: NCI In Vivo Anticancer Drug Screen. Data for tumor model L1210 Leukemia resistant to Methotrexate; NSC 740 (intraperitoneal) in B6D2F1 (BDF1) mice
Details: endpoint: mean survival time, higher = longer survival
Method: The antitumor activity of compounds was measured in mice bearing transplantable tumors. Survival or tumor size were measured and the results are expressed as the measurement made in the treated group (T) divided by the measurement made in the vehicle treated control group (C). The tumor model used in this assay is L1210 Leukemia resistant to Methotrexate; NSC 740 (intraperitoneal) in B6D2F1 (BDF1) mice

Measured: T/C

O=c1cnn(C2OC(CO)C(O)C2O)c(=O)[nH]1 (stereo unspecified)
inactive: dose: 125.0 mg/kg/injection, schedule: Q01DX Z (ip), vehicle: methylcellulose (MC) 97 % of control | dose: 250.0 mg/kg/injection, schedule: Q01DX Z (ip), vehicle: methylcellulose (MC) 95 % of control | dose: 500.0 mg/kg/injection, schedule: Q01DX Z (ip), vehicle: methylcellulose (MC) 104 % of control

CC1CCOS(=O)O1 (stereo unspecified)
inactive: dose: 10.0 mg/kg/injection, schedule: Q01DX010 (ip), vehicle: saline 100 % of control | dose: 20.0 mg/kg/injection, schedule: Q01DX010 (ip), vehicle: saline 100 % of control | dose: 40.0 mg/kg/injection, schedule: Q01DX010 (ip), vehicle: saline 90 % of control
